# Experimental data published in PubChem BioAssay AID651563 (Sanford-Burnham Center for Chemical Genomics, 2012).
# The source made the active and inactive calls.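 Rule for the calls: active = compounds whose IC50 is 20 micromolar or lower, counted as confirmed SKN-1 reporter blockers; inactive = the rest.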
# Tested on: C. elegans VP596 Pgst-4::GFP/RFP ratio, acrylamide, 24 h
# Experiment: C. elegans gst-4 reporter suppression, concentration series – whole organism, GFP/RFP fluorescence ratio, set 2, strain VP596, SKN-1 inhibitor project, dose response (AID 651563);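 note: red signal is driven by the dop-3 promoter and serves as the normalizer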
row,IC50,Structure (SMILES)
1,23.1 µM (inactive),Clc1ccc(OCc2cnc(Cl)s2)cc1
2,36.1 µM (inactive),c1csc(-c2nc(-c3ccncc3)no2)c1
3,> 100 µM (inactive),COC(=O)c1cccc(CC2(C)C(=O)Nc3ccc(OC(F)(F)F)cc32)c1 (stereo unspecified)
4,19.1 µM,C(=C\c1nc(-c2ccncc2)no1)/c1ccccc1
5,2.54 µM,Brc1ccc(-c2nc(-c3ccccc3)no2)o1
6,29.2 µM (inactive),CCCCOc1ccc(C(=O)OC2CC(C)N(C)CC2C)cc1 (stereo unspecified)
7,29.8 µM (inactive),O=C(NCc1ccncc1)c1ccc(-c2ccc(F)c(F)c2)c2ccoc12
8,15.9 µM,Cc1ccc2nc(-c3ccc(NC(=S)NC4CC(C)(C)NC(C)(C)C4)cc3)sc2c1
9,21.9 µM (inactive),O=C(Nc1nc(-c2ccccc2)cs1)c1cccs1
10,> 100 µM (inactive),c1ccc(-c2cnc(-c3ccccc3)nn2)cc1
11,> 100 µM (inactive),O=C(Oc1ccccc1)N1CCN(c2ccc(F)cc2)CC1
12,> 100 µM (inactive),Clc1ncc(CSc2ccccc2)s1
13,21.7 µM (inactive),c1ccc(Nc2nc(-c3cccs3)cs2)nc1
14,7.32 µM,Brc1ccc(CSc2nnc(-c3ccco3)o2)cc1
15,30.6 µM (inactive),Clc1ccc(Cn2cc(Br)cn2)cc1Cl
16,12.5 µM,CN1CCN(c2ccc(NC(=O)c3ccc(Oc4ccccc4)cc3)cc2)CC1
17,> 100 µM (inactive),O=C(Nc1nc(SCc2ccc(F)cc2)ns1)c1ccco1
18,12.7 µM,CSc1cccc(NC(=O)c2cccc3cccnc23)c1
19,16.8 µM,c1ccc(-c2csc(Nc3ccccn3)n2)cc1
20,> 100 µM (inactive),C(=C\c1ccc2ccccc2n1)/c1ccccc1
21,53.5 µM (inactive),N/C(=N\OC(=O)c1cc(Br)ccc1Cl)c1ccccn1
22,18.3 µM,Cc1cc(-c2nc3cc(F)ccc3s2)ccc1N

row,IC50,Structure (SMILES)
1,5.86 µM,Fc1ccc(-c2csc(-c3ccncc3)n2)cc1
2,13.8 µM,CCN(CC)Cc1ccc(NC(=O)c2sc3cc(Cl)ccc3c2Cl)cc1
3,8.62 µM,O=[N+]([O-])c1ccc(COc2ccc(CN3CCCC3)cc2)cc1
4,15.8 µM,O=C(Nc1nccs1)c1ccc2ccccc2n1
5,> 100 µM (inactive),Clc1ccc(-n2nnc(-c3cccnc3)n2)cc1Cl
6,94.9 µM (inactive),O=C(NC(=S)Nc1ccc(CN2CCCCC2)cc1)c1cc2ccccc2o1
7,49.3 µM (inactive),COC(=O)c1c(-c2ccccc2)noc1-c1ccccc1
8,21 µM (inactive),O=C(/C(C=Nc1ccc(Br)cc1)=C(/O)c1ccco1)C(F)(F)F
9,11.4 µM,O=C(/C=C/Nc1ccc(F)c(F)c1)c1cccs1
10,> 100 µM (inactive),Cc1ccc(C=Cc2ccccn2)cc1
11,8.89 µM,O=[N+]([O-])c1ccc(COc2ccc(CN3CCCCC3)cc2)cc1
12,5.09 µM,O=C(Nc1ccc(OC(F)F)c(Cl)c1)c1ccccn1
13,> 100 µM (inactive),Cc1nc2ccccc2cc1OCc1ccc(Cl)cc1
14,1.79 µM,Clc1ccccc1-c1nnc(-c2ccccc2Cl)o1
15,31.2 µM (inactive),Clc1ccc(OCc2nc(-c3ccncc3)no2)c(Br)c1
16,> 100 µM (inactive),O=C(c1ccc(Cl)cc1)c1cc([N+](=O)[O-])ccc1N1CCOCC1
17,3.84 µM,O=[N+]([O-])c1ccc2nc(-c3ccccc3)oc2c1
18,19.7 µM,COc1cc(CNC(C)(C)CO)cc(Br)c1OCc1ccc(Cl)cc1
19,17.5 µM,CSc1ccc(-c2cc(=O)c3ccccc3o2)cc1
20,31.6 µM (inactive),O=C1/C(=C/c2ccccc2)CCCc2ccccc21
21,9.1 µM,O=C(c1cccs1)c1ccc(-c2cccs2)s1
22,6.4 µM,Fc1ccc(COc2ccc(-c3nnco3)cc2)c(Cl)c1

row,IC50,Structure (SMILES)
1,31.7 µM (inactive),O=C(C=Cc1ccco1)c1ccc2ccccc2c1
2,11.5 µM,Clc1ccc(Nc2nc(-c3cccs3)cs2)nc1
3,> 100 µM (inactive),c1ccc(-n2nnc(-c3nccs3)n2)cc1
4,> 100 µM (inactive),Brc1ccc(-c2nnc(-c3cccnc3)o2)cc1
5,> 100 µM (inactive),Cc1ccc(NC(=O)c2ccc(F)cc2F)cc1
6,81.5 µM (inactive),CCCCCNC(=O)c1ccccc1SC
7,17.7 µM,O=C(Nc1nc2c(ccc3ccccc32)s1)c1ccco1
8,18.1 µM,O=[N+]([O-])c1ccc(NCc2ccc(Cl)cc2)nc1
9,> 100 µM (inactive),Clc1ccc(-c2nc(-c3ccncc3)no2)c(Cl)c1
10,12.6 µM,c1ccc(-c2csc(-c3ccncc3)n2)cc1
11,31.5 µM (inactive),Fc1ccc(OCc2nc(-c3cccs3)no2)cc1
12,31 µM (inactive),N#Cc1cncc(C#Cc2ccccc2)c1
13,23.3 µM (inactive),O=C(/C=C/c1ccc(Cl)cc1)Nc1ccc(CN2CCOCC2)cc1
14,19.9 µM,Fc1ccc(Cn2nnc(-c3ccc(CN4CCOCC4)cc3)n2)cc1
15,> 100 µM (inactive),O=C(Nc1ccc(-c2nnc(-c3ccccc3)o2)cc1)c1ccc(Br)o1
16,11.9 µM,Clc1ccc(C=Cc2ccccn2)c(Cl)c1
17,2.19 µM,O=C(/C=C/Nc1ccc(Br)cc1F)c1ccco1
18,10.4 µM,Clc1ccc(C=Cc2ccccn2)cc1
19,16.2 µM,O=C(/C=C/c1ccccc1)/C=C/c1ccccc1
20,15.5 µM,O=C(Nc1nc(-c2ccc(Cl)s2)cs1)c1ccco1
21,> 100 µM (inactive),Fc1ccc(-c2nc3ccc(Cl)cn3c2Cc2ccsc2)cc1

row,Structure (SMILES),IC50
1,O=C1NC2C(=CC(O)C(O)C2O)c2cc3c(cc21)OCO3 (stereo unspecified),> 100 µM (inactive)
